Source: ChEMBL document CHEMBL1157348, “The alkaloid conessine and analogues as potent histamine H3 receptor antagonists” (J Med Chem, 2008)
Blank lines part the entries; values can stand above or below the compound they belong to.

Columns and labels:
Histamine H3 receptor [1] = molecular target: T1, Histamine H3 receptor (Homo sapiens, UniProt Q9Y5N1); assay: Displacement of [3H]NAMH from human full length histamine H3 receptor expressed in rat C6 cells; type: cell-based
Histamine H3 receptor [2] = molecular target: T2, Histamine H3 receptor (Rattus norvegicus, UniProt Q9QYN8); assay: Displacement of [3H]NAMH from histamine H3 receptor in rat cortex
Histamine H3 receptor [3] = molecular target: Histamine H3 receptor (Cavia porcellus, UniProt Q9JI35); assay: Antagonist activity at histamine H3 receptor in guinea pig ileum assessed as inhibition of (R)-alpha-methylhistamine-induced response
Histamine H3 receptor [4] = molecular target: T2, Histamine H3 receptor; assay: Displacement of [3H]NAMH from rat full length histamine H3 receptor expressed in rat C6 cells; type: cell-based
Histamine H4 receptor = Histamine H4 receptor (Homo sapiens, UniProt Q9H3N8); assay: Displacement of [3H]histamine from human histamine H4 receptor expressed in HEK cells; type: cell-based, HEK293; conditions: read-out: pKi (converted)
Histamine H1 receptor = Histamine H1 receptor (Homo sapiens, UniProt P35367); assay: Displacement of [3H]mepyramine from human histamine H1 receptor; conditions: read-out: pKi (converted)
[5] = molecular target: Histamine H3 receptor (Rattus norvegicus) (UniProt Q9QYN8); assay: Antagonist activity at rat full length histamine H3 receptor expressed in HEK cells assessed as inhibition of forskolin-induced cAMP accumulation by SPA; conditions: HEK293
[6] = Drug level in rat brain at 1 mg/kg, ip after 5 hrs; type: ADME, organism-based; set-up: dose 1 mg/kg, route intraperitoneal; conditions: read-out: Drug uptake
Rattus norvegicus = assay: Toxicity in rat assessed as CNS side effects at 1.3 to 13 mg/kg, ip; type: organism-based; set-up: dose 1.3-13 mg/kg, route intraperitoneal; conditions: in vivo
[7] = Ratio of drug level in brain to plasma at 1 mg/kg, ip after 1 hr; type: ADME, organism-based; set-up: dose 1 mg/kg, route intraperitoneal; conditions: rat
Histamine H3 receptor [8] = molecular target: T1, Histamine H3 receptor; assay: Antagonist activity at human full length histamine H3 receptor expressed in HEK293 cells assessed as inhibition of (R)-alpha-methylhistamine-induced intracellular calcium release by FLIPR; type: functional, cell-based
Histamine H3 receptor [9] = molecular target: T1, Histamine H3 receptor; conditions: HEK293
[10] = Displacement of [3H]LY278584 from 5HT3 receptor in rat frontal cortex; type: tissue-based
[11] = Drug level in rat blood at 1 mg/kg, ip after 24 hrs; type: ADME, organism-based; set-up: dose 1 mg/kg, route intraperitoneal; conditions: read-out: Drug uptake
Histamine H2 receptor = Histamine H2 receptor (Homo sapiens, UniProt P25021); assay: Displacement of [3H]tiotidine from human histamine H2 receptor; conditions: read-out: pKi (converted)
[12] = molecular target: T3, Alpha-2C adrenergic receptor (Homo sapiens, UniProt P18825); assay: Displacement of [3H]rauwolscine from human adrenergic alpha 2C4 receptor expressed in mouse LTK- cells; type: cell-based
T3 sequence (P18825 whole entry): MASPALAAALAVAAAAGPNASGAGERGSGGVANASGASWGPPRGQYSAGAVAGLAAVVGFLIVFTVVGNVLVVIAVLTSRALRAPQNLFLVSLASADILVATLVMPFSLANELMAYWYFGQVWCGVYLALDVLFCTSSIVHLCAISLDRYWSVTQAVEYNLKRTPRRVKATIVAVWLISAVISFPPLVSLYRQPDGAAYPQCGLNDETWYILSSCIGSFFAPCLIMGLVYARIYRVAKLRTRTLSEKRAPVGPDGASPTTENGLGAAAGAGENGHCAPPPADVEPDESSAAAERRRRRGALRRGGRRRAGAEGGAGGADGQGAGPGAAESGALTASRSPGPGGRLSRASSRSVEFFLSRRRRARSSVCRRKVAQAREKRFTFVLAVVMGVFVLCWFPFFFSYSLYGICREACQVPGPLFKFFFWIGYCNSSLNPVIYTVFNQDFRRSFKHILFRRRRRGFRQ

[13] = molecular target: T4, Alpha-2A adrenergic receptor (Homo sapiens, UniProt P08913); assay: Displacement of [3H]rauwolscine from human adrenergic alpha 2C10 receptor expressed in mouse LTK- cells; type: cell-based
T4 sequence (P08913 whole entry): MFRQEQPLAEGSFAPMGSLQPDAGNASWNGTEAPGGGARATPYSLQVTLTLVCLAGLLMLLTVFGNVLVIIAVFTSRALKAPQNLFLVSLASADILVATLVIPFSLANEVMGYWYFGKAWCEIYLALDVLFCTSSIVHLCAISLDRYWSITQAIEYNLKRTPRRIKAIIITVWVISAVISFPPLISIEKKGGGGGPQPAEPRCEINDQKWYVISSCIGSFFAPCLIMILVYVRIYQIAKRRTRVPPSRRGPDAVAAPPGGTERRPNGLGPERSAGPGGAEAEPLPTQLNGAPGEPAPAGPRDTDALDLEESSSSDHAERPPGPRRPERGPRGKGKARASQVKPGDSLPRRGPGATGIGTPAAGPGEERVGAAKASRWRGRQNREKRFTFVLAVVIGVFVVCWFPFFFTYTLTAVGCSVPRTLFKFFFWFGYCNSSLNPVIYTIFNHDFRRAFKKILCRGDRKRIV

[14] = Selectivity ratio for human adrenergic alpha 2C4 receptor over human H3 receptor
[15] = Plasma concentration in rat at 1 mg/kg, ip after 24 hrs; type: ADME, organism-based; set-up: dose 1 mg/kg, route intraperitoneal
Histamine H3 receptor [16] = molecular target: T1, Histamine H3 receptor; assay: Displacement of [3H]NAMH from histamine H3 receptor in human cortex
[17] = Displacement of [3H]LY278584 from 5HT1 receptor in rat frontal cortex; type: tissue-based
[18] = Ratio of drug level in brain to plasma at 1 mg/kg, ip after 24 hrs; type: ADME, organism-based; set-up: dose 1 mg/kg, route intraperitoneal; conditions: rat
[19] = Ratio of drug level in brain to plasma at 1 mg/kg, ip after 5 hrs; type: ADME, organism-based; set-up: dose 1 mg/kg, route intraperitoneal; conditions: rat
[20] = Drug level in rat blood at 1 mg/kg, ip after 5 hrs; type: ADME, organism-based; set-up: dose 1 mg/kg, route intraperitoneal; conditions: read-out: Drug uptake
[21] = Drug level in rat brain at 1 mg/kg, ip after 24 hrs; type: ADME, organism-based; set-up: dose 1 mg/kg, route intraperitoneal; conditions: read-out: Drug uptake
[22] = Plasma concentration in rat at 1 mg/kg, ip after 1 hr; type: ADME, organism-based; set-up: dose 1 mg/kg, route intraperitoneal
[23] = Drug level in rat brain at 1 mg/kg, ip after 1 hr; type: ADME, organism-based; set-up: dose 1 mg/kg, route intraperitoneal; conditions: read-out: Drug uptake
[24] = Displacement of [3H]LY278584 from 5HT2 receptor in rat frontal cortex; type: tissue-based
Histamine H3 receptor [25] = molecular target: T1, Histamine H3 receptor; conditions: C6
[26] = Drug level in rat blood at 1 mg/kg, ip after 1 hr; type: ADME, organism-based; set-up: dose 1 mg/kg, route intraperitoneal; conditions: read-out: Drug uptake
[27] = Plasma concentration in rat at 1 mg/kg, ip after 5 hrs; type: ADME, organism-based; set-up: dose 1 mg/kg, route intraperitoneal
[28] = molecular target: Histamine H3 receptor (Cavia porcellus) (UniProt Q9JI35); conditions: Ileum
[29] = molecular target: Histamine H3 receptor (Rattus norvegicus) (UniProt Q9QYN8); assay: Antagonist activity at rat full length histamine H3 receptor assessed as inhibition of (R)-alpha-methylhistamine-induced intracellular calcium release by FLIPR; type: functional, cell-based
[30] = molecular target: Histamine H3 receptor (Rattus norvegicus) (UniProt Q9QYN8); assay: Antagonist activity at rat full length histamine H3 receptor expressed in rat C6 cells assessed as inhibition of [35S]gammaGTP binding relative to control; type: cell-based

T1 sequence (Q9Y5N1 whole entry): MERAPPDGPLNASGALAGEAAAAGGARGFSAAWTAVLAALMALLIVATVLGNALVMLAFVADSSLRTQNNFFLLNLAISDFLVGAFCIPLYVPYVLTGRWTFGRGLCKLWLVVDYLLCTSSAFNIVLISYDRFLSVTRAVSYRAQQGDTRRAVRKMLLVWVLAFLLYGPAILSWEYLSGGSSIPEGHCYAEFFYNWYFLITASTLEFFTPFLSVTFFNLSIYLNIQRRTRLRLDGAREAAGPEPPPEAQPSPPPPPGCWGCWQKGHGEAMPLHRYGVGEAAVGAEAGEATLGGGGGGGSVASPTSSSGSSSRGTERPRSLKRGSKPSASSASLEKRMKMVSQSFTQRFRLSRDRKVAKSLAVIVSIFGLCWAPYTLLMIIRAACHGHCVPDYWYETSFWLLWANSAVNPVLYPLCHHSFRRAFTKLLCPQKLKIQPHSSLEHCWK
T2 sequence (Q9QYN8 whole entry): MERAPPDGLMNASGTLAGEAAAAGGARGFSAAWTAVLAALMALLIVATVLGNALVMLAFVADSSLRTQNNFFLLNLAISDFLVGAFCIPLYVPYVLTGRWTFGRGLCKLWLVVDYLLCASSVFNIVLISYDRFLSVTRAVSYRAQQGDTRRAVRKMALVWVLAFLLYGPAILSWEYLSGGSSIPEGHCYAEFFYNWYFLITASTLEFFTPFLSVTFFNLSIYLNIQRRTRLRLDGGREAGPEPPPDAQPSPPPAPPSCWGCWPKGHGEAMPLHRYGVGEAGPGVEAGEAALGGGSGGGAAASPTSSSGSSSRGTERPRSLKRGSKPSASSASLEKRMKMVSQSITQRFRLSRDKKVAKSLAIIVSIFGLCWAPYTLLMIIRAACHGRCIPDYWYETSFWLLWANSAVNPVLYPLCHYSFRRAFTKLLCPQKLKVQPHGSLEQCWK
Chain of Histamine H3 receptor (Rattus norvegicus) (Q9QYN8 whole entry): as above
Chain of Histamine H3 receptor (Cavia porcellus, UniProt Q9JI35) (Q9JI35 whole entry): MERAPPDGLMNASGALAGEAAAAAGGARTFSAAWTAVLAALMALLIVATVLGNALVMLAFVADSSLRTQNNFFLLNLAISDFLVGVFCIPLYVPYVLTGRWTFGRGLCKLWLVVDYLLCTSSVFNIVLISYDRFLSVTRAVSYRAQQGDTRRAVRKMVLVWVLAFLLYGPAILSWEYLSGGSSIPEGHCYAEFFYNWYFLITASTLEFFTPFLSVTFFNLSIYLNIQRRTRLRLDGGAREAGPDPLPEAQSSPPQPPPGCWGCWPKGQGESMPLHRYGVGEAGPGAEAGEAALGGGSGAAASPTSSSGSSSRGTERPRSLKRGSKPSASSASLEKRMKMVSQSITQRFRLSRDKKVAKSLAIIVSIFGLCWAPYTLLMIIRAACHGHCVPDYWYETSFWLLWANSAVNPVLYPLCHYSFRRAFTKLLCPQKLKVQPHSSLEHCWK
Chain of Histamine H1 receptor (P35367 whole entry): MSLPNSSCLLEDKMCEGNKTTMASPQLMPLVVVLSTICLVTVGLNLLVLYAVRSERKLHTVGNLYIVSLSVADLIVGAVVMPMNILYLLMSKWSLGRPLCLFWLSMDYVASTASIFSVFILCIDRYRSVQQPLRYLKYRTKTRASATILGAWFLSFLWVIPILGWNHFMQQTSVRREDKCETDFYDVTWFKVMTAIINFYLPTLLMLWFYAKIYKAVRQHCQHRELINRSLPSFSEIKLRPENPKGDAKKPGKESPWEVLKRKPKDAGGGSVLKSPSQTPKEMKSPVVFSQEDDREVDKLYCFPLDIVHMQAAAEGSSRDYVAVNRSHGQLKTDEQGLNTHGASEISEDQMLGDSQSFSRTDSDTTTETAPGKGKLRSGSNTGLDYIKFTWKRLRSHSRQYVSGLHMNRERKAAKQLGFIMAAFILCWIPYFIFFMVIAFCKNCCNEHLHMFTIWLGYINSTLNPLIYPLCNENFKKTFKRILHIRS
Chain of Histamine H3 receptor (Cavia porcellus) (Q9JI35 whole entry): as the sequence (Q9JI35 whole entry) above
Chain of Histamine H2 receptor (P25021 whole entry): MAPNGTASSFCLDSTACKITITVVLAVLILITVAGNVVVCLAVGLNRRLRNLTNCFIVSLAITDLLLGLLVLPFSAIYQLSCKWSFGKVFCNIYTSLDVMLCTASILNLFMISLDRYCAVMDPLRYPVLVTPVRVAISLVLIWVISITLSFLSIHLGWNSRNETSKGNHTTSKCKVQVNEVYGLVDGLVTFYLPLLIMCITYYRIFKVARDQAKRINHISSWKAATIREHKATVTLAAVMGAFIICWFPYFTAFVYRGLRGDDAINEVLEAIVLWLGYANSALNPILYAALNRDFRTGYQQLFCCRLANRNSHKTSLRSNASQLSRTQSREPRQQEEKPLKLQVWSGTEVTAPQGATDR

SMILES: CC[C@H](C)[C@H](N)C(=O)N(C)[C@H]1CC[C@@]2(C)C(=CC[C@H]3[C@@H]4CC[C@@H]5[C@H](C)N(C)C[C@@]54CC[C@@H]32)C1
- Ki (Histamine H3 receptor [1]): 0.22 nM
- Ki (Histamine H3 receptor [2]; read-out: Ki): 0.49 nM

- IC50 (Histamine H3 receptor [3]): 830 nM
SMILES: COc1ccc(C/C(=N\O)C(=O)NCCc2c[nH]cn2)cc1Br [VERONGAMINE]

SMILES: C[C@H]1[C@H]2CC[C@H]3[C@@H]4CC=C5C[C@@H](N(C)C(=O)c6ccncc6)CC[C@]5(C)[C@H]4CC[C@]23CN1C
- Ki (Histamine H3 receptor [1]): 16.2 nM
- Ki (Histamine H3 receptor [2]; read-out: Ki): 155 nM

SMILES: CC(=O)N[C@@H](Cc1ccccc1)C(=O)N(C)[C@H]1CC[C@@]2(C)C(=CC[C@H]3[C@@H]4CC[C@@H]5[C@H](C)N(C)C[C@@]54CC[C@@H]32)C1
- Ki (Histamine H3 receptor [1]): 1.15 nM
- Ki (Histamine H3 receptor [2]; read-out: Ki): 2.29 nM

- Ki (Histamine H3 receptor [1]): 543 nM
- Ki (Histamine H3 receptor [4]; read-out: Ki): 1000 nM
SMILES: CN1C[C@]23CC[C@H]4[C@@H](CC=C5C[C@@H](N(C)C)CC[C@@]54C)[C@@H]2CC[C@@H]3C1=O

- Ki (Histamine H4 receptor): > 10 µM
- Ki (Histamine H3 receptor [1]): 5.37 nM
- Ki (Histamine H1 receptor): > 10 µM
- pKb [5]: 6.99
- concentration at 5 h [6]: 6800 ng/g
- Kp at 1 h [7]: 46
- pKb (Histamine H3 receptor [8]): 8.08
- Ki (Histamine H3 receptor [4]; read-out: pKi (converted)): 12.3 nM
- Kb (Histamine H3 receptor [3]): 282 nM
- pKb (Histamine H3 receptor [9]): 7.96
- pKi [10]: < 5
- concentration at 24 h [11]: 102 ng/mL
- Ki (Histamine H2 receptor): > 10 µM
- Ki [12]: 10.6 nM
- Ki [13]: 661 nM
- Selectivity ratio [14]: 2
- concentration at 24 h [15]: 37 ng/mL
- Ki (Histamine H3 receptor [16]): 3.47 nM
- pKi [17]: 5.72
- Kp at 24 h [18]: 114
- Kp at 5 h [19]: 95.4
- concentration at 5 h [20]: 306 ng/mL
- Ki (Histamine H3 receptor [2]; read-out: pKi (converted)): 24.5 nM
- concentration at 24 h [21]: 4140 ng/g
- concentration at 1 h [22]: 148 ng/mL
- concentration at 1 h [23]: 6570 ng/g
- pKi [24]: < 5
- pKb (Histamine H3 receptor [25]): 6.14
- concentration at 1 h [26]: 444 ng/mL
- concentration at 5 h [27]: 89 ng/mL
SMILES: C[C@H]1[C@H]2CC[C@H]3[C@@H]4CC=C5C[C@@H](N(C)C)CC[C@]5(C)[C@H]4CC[C@]23CN1C [CONESSINE]
- Activity (Rattus norvegicus): Non-toxic

SMILES: C[C@H]1[C@H]2CC[C@H]3[C@@H]4CC=C5C[C@@H](N(C)S(=O)(=O)N(C)C)CC[C@]5(C)[C@H]4CC[C@]23CN1C
- Ki (Histamine H3 receptor [1]): 30.9 nM
- Ki (Histamine H3 receptor [2]; read-out: Ki): 240 nM

SMILES: C[C@H]1[C@H]2CC[C@H]3[C@@H]4CC=C5C[C@@H](N(C)C(=O)C6CC6)CC[C@]5(C)[C@H]4CC[C@]23CN1C
- Ki (Histamine H3 receptor [1]): 60.3 nM
- Ki (Histamine H3 receptor [2]; read-out: Ki): 380 nM

SMILES: C[C@H]1[C@H]2CC[C@H]3[C@@H]4CC=C5C[C@@H](N(C)C(=O)c6ccccc6)CC[C@]5(C)[C@H]4CC[C@]23CN1C
- Ki (Histamine H3 receptor [1]): 12.3 nM
- Ki (Histamine H3 receptor [2]; read-out: Ki): 38 nM

- Ki (Histamine H3 receptor [4]; read-out: Ki): 294 nM
SMILES: NCCC(=O)NCCc1c[nH]cn1 [CARCININE]

- Ki (Histamine H3 receptor [2]; read-out: pKi (converted)): 0.631 nM
SMILES: O=C(c1ccc(OCCCc2cnc[nH]2)cc1)C1CC1 [CIPROXIFAN]

SMILES: C[C@H]1[C@H]2CC[C@H]3[C@@H]4CC=C5C[C@@H](N(C)C(=O)N(C)C)CC[C@]5(C)[C@H]4CC[C@]23CN1C
- Ki (Histamine H3 receptor [1]): 50.1 nM
- Ki (Histamine H3 receptor [2]; read-out: Ki): 295 nM

- pKb [5]: 9.2
- pKb [28]: 8.12
- pKb [29]: 9.42
- pKb (Histamine H3 receptor [8]): 6.84
- pKb (Histamine H3 receptor [9]): 7.07
- pKi [10]: 6.52
- pKi [17]: 4.78
- pKi [24]: 4.73
- pKb [30]: 8.78
- pKb (Histamine H3 receptor [25]): 6.59
SMILES: O=C(c1ccc(OCCCc2c[nH]cn2)cc1)C1CC1 [CIPROXIFAN]
